Strand notation (5' to 3'): a small letter for the sugar, then the base; units joined by * are phosphorothioate-linked, units joined directly phosphodiester-linked; [ ] holds rarer units or linkages, { } end groups; capitals alone tell only the bases. e = 2'-O-(2-methoxyethyl) (MOE); l = locked nucleic acid (LNA); [5mC] = 5-methylcytosine; d = 2'-deoxy (DNA)
Tested on: human ABCB11 mRNA
Experiment: ASO treatment of primary human hepatocytes (PHH), ABCB11 mRNA by RT-qPCR normalized to B2M
Assay type: cell-based
Details: primary human hepatocytes; for ABCB11 mRNA FC (5 μM ASO vs. UNT): normalized to untreated PHHs (UNT); for ABCB11 FC mRNA (5 μM ASO vs. untreated): 5 μM ASO with PO-modifications, normalized to untreated hepatocytes
Protocol: Primary human hepatocytes (PHH) were thawed using Lonza Human Cryopreserved Hepatocyte Thawing Medium and plated in 96-well collagen-coated plates (5.5-6.0×10^4 cells per well). Four hours later, the media was replaced with sterile-filtered QualGro™ Hepatocyte Culture Medium (BioIVT) containing antibiotic supplement, 0.3 mg/ml Matrigel® matrix (Corning®), and ASO at the desired concentration (e.g., 1.25 μM, 2.5 μM, 5 μM, or 10 μM). After 72 hrs., cells were harvested by aspirating media, washing once with phosphate-buffered saline (PBS), and lysed with 150 μl of Buffer RLT lysis buffer (Qiagen®). Plates were frozen at-80° C. during cell lysis. After thawing, total RNA was isolated using the Qiagen RNEasy kit as instructed by manufacturer. cDNA (random-primed) was synthesized from 10 μl of RNA using the LifeTech High Capacity cDNA Reverse Transcription kit. 2 μl of cDNA was used for reverse transcription-quantitative PCR (RT-qPCR) analyses using standard Taqman” reagents from Applied Biosystems™ to measure ABCB11 and CYP7A1 gene expression. Gene expression data was normalized to the housekeeper gene, beta-2-microglobulin (B2M).
To assess the ability of ASOs targeting ABCB11 regRNAs to modulate the expression of human ABCB11, 195 ASOs targeting the human ABCB11 regRNAs were synthesized. These initial ASOs were screened in PHHs at 5 μM to determine their efficacy in increasing human ABCB11 mRNA using quantitative PCR. This initial screen identified 10 ASOs that induced increased expression of ABCB11 mRNA by more than 1.5-fold (as compared to untreated PHHs).

Substance | ABCB11 mRNA FC (5 μM ASO vs. UNT) | ABCB11 FC mRNA (5 μM ASO vs. untreated)
CO-7012 (antisense eT*eG*eT*eG*eG*dA*dT*lG*dT*dA*lG*dA*dT*lG*dA*dA*lT*dG*dG*e[5mC]*eA*eA*eG*eG) | 0.985 fold change | –
CO-4026 (antisense e[5mC]*eT*eT*eG*eT*e[5mC]*e[5mC]*eA*eG*eT*eG*eT*eA*eA*eA*e[5mC]*eA*eA*e[5mC]*eG) | 1.234 fold change | –
CO-6998 (antisense eG*eT*eG*lA*eG*lG*e[5mC]*lA*eT*l[5mC]*eA*lGeG*lT*eA*lA*eG*lT*eT*e[5mC]) | 1.246 fold change | –
CO-7158 (antisense eA*eG*eG*eT*eG*eG*eA*eG*e[5mC]*eA*eA*eA*e[5mC]*eT*eA*eG*eG*e[5mC]*eA*e[5mC]) | 1.229 fold change | –
CO-7058 (antisense eT*e[5mC]*eT*eG*eG*lA*dA*dA*lA*dT*dA*lA*dT*dG*l[5mC]*e[5mC]*eT*eT*eT*e[5mC]) | 1.052 fold change | –
CO-7070 (e[5mC]*eA*eT*eT*lT*dA*dG*dA*lG*dA*d[5mC]*dA*lA*dA*dG*eA*lA*eT*e[5mC]*eG; antisense) | 1.044 fold change | –
CO-6991 (antisense eT*eG*eG*eA*lT*eG*eT*eA*lG*eA*eT*eG*lA*eA*eT*eG*lG*e[5mC]*eA*eA) | 1.193 fold change | –
CO-12751 (antisense eG*eT*eG*eA*eGeG*e[5mC]*eA*eTe[5mC]*eA*eG*eGeT*eA*eA*eGeT*eT*e[5mC]) | – | 0.93 fold change
CO-4523 (antisense eT*e[5mC]*eT*eG*e[5mC]*eA*eA*eA*eT*eT*eA*eA*eG*eA*eA*eG*e[5mC]*eA*e[5mC]eT) | 1.037 fold change | –
CO-7050 (antisense eT*eT*eG*eG*eT*eT*e[5mC]*e[5mC]*e[5mC]*e[5mC]*e[5mC]*eT*eG*e[5mC]*eT*eG*eT*eG*e[5mC]*eT) | 1.026 fold change | –
CO-6995 (antisense eG*eT*eG*eA*eG*lG*d[5mC]*dA*lT*d[5mC]*dA*lG*dG*dT*lA*eA*eG*eT*eT*e[5mC]) | 1.277 fold change | –
CO-4514 (antisense eG*e[5mC]*eG*eG*eG*eA*eT*eT*eA*eG*eA*eT*eG*eA*eG*eG*eT*e[5mC]*eT*eA) | 1.175 fold change | –
CO-4014 (antisense eG*eA*eT*e[5mC]*eA*e[5mC]*eA*eA*eA*eT*eT*e[5mC]*eT*eA*e[5mC]*e[5mC]*e[5mC]*eT*eT*eG) | 1.003 fold change | –
CO-4049 (antisense eG*eT*e[5mC]*eT*e[5mC]*e[5mC]*eA*e[5mC]*eA*eA*eA*eA*e[5mC]*eT*e[5mC]*eT*eA*eT*eA*eG) | 0.889 fold change | –
CO-7023 (antisense e[5mC]*eT*eT*eA*eT*e[5mC]*eT*eG*eG*eA*eA*eA*eA*eT*eA*eA*eT*eG*e[5mC]*e[5mC]) | 1.338 fold change | –
CO-11223 (antisense eG*eT*lG*eGeAlGe[5mC]*eA*lA*eA*e[5mC]*lT*eA*eGlGe[5mC]eA*l[5mC]*eT*eG) | – | 1.80 fold change
CO-11219 (antisense eG*eT*lGeG*lA*eGl[5mC]*eA*lAeA*l[5mC]*eTlA*eG*lGe[5mC]*lA*e[5mC]eT*eG) | – | 2.45 fold change
CO-4013 (antisense eT*eT*eG*eA*eA*eA*eG*e[5mC]*eT*eG*eG*eT*eT*eT*eA*eA*eT*eG*e[5mC]*eA) | 1.166 fold change | –
CO-4035 (antisense eG*eT*eT*e[5mC]*eA*eG*eT*eG*e[5mC]*eT*eT*eT*eA*eG*eA*eA*eT*eG*eA*eT) | 0.926 fold change | –
CO-4030 (antisense eT*e[5mC]*eA*e[5mC]*eA*eG*eGeT*eA*eA*eG*eT*eA*eA*e[5mC]*eT*eT*eA*eT*eA) | 1.106 fold change | –
CO-4050 (antisense e[5mC]*eA*eA*eA*eT*eG*eT*eT*e[5mC]*eT*eT*eT*eT*eA*eG*eG*eG*eT*eA*eT) | 0.968 fold change | –
CO-6977 (antisense eG*eG*eT*eA*eA*eG*eT*eT*e[5mC]*e[5mC]*eT*eG*eA*eA*eG*eT*eG*eG*eA*eG) | 1.15 fold change | –
CO-11235 (antisense eG*eT*eG*eGlAeGe[5mC]*eA*eA*lA*e[5mC]*eT*eA*eGlGe[5mC]eA*e[5mC]*eT*eG) | – | 1.47 fold change

Substance | ABCB11 mRNA FC (5 μM ASO vs. UNT) | ABCB11 FC mRNA (5 μM ASO vs. untreated)
CO-7191: derivative ASO with additional chemical modifications based on parent ASO CO-4535 (eT*eG*eG*e[5mC]*lG*eT*eT*eA*lT*eT*eA*eA*lT*eT*e[5mC]*eT*lA*e[5mC]*eA*eG) | 1.676 fold change | –
CO-4019 (antisense eA*eG*eA*eG*eT*eG*eG*eT*eG*eT*eA*e[5mC]*eA*eT*eG*eG*eG*eT*eG*eT) | 1.028 fold change | –
CO-6966 (antisense eA*eT*eG*eA*eA*eT*eG*eG*e[5mC]*eA*eA*eG*eG*eA*eG*eA*eG*eG*eA*eT) | 1.177 fold change | –
CO-6993 (antisense eT*eG*eG*eA*eT*lG*eT*eA*eG*eA*lT*eG*eA*eA*eT*lG*eG*e[5mC]*eA*eA) | 1.209 fold change | –
CO-7042 (antisense e[5mC]*eT*eT*eG*eG*eT*e[5mC]*eA*eA*eG*eA*eG*eG*eA*eA*eA*eG*eA*eA*e[5mC]) | 1.132 fold change | –
CO-4046 (antisense eG*eG*eG*eAeA*eA*eG*eT*eT*eT*eA*eA*eA*eGeGeT*eA*eT*eT*eT) | 1.035 fold change | –
CO-4028 (antisense eT*eT*eA*eA*e[5mC]*eT*e[5mC]*eT*eT*eA*e[5mC]*eT*eT*eT*eG*eT*eG*eG*eA*eG) | 1.418 fold change | –
CO-11198 (antisense eT*eG*eT*eT*eTeTeG*e[5mC]*eT*eT*eG*eG*eT*e[5mC]eAeA*eG*eA*eG*eG) | – | 0.97 fold change
CO-7186: derivative ASO with additional chemical modifications based on parent ASO CO-4535 (antisense eT*eG*eG*l[5mC]*eG*dT*dT*lA*dT*dT*dA*lA*dT*dT*d[5mC]*lT*eA*e[5mC]*eA*eG) | 1.85 fold change | –
CO-3989 (antisense eA*eA*eG*eA*eT*eG*e[5mC]*eT*eA*e[5mC]*eA*eA*eT*eT*eG*e[5mC]*e[5mC]*eA*eT*eA) | 1.19 fold change | –
CO-11200 (antisense eT*eG*eTeTeTeTeG*e[5mC]*eT*eT*eG*eG*eT*e[5mC]eAeAeGeA*eG*eG) | – | 1.34 fold change
CO-11238 (antisense eG*eT*eGeG*lA*eG*e[5mC]*eAeA*lA*e[5mC]*eT*eAeG*lG*e[5mC]*eA*e[5mC]eT*eG) | – | 1.26 fold change
CO-7188: derivative ASO with additional chemical modifications based on parent ASO CO-4535 (antisense eT*eG*eG*l[5mC]*eG*lT*eT*lA*eT*lT*eA*lA*eT*lT*e[5mC]*lT*eA*l[5mC]*eA*eG) | 1.697 fold change | –
CO-11204 (antisense eT*eG*eT*eT*eTeT*eG*e[5mC]*eTeT*eG*eG*eTe[5mC]*eA*eA*eGeA*eG*eG) | – | 1.15 fold change
CO-4508 (antisense eG*eT*eA*eG*eG*eA*eA*eG*eT*eT*eG*eA*eA*eT*eG*eA*eG*eT*eT*eG) | 1.185 fold change | –
CO-7197 (eG*eG*eT*eG*eG*dA*dG*d[5mC]*eA*dA*dA*d[5mC]*dT*eA*dG*dG*d[5mC]*eA*e[5mC]*eT*eG*eA; antisense) | 1.364 fold change | –
CO-7098 (eA*eT*e[5mC]eT*eG*eG*dA*dA*dA*dA*dT*dA*dA*dT*dG*d[5mC]*e[5mC]*eT*eT*eT*e[5mC]*eT) | 1.04 fold change | –
CO-7089 (eA*e[5mC]*e[5mC]*l[5mC]*e[5mC]*d[5mC]*d[5mC]*lT*d[5mC]*dA*d[5mC]*l[5mC]*dT*dT*dG*lG*eT*eT*e[5mC]*e[5mC]; antisense) | 1.249 fold change | –
CO-11217 (antisense eG*eTlG*eG*lA*eGl[5mC]*eA*lA*eAl[5mC]eT*lA*eGlG*e[5mC]*lA*e[5mC]eT*eG) | – | 2.10 fold change
CO-4522 (antisense e[5mC]*eA*e[5mC]*eT*eG*eG*e[5mC]*e[5mC]*e[5mC]*eA*eT*e[5mC]*eA*eA*eT*eT*eG*e[5mC]*eA*eT) | 1.027 fold change | –
CO-7090 (eA*e[5mC]*e[5mC]*e[5mC]*l[5mC]*d[5mC]*d[5mC]*dT*l[5mC]*dA*d[5mC]*d[5mC]*lT*dT*dG*eG*lT*eT*e[5mC]*e[5mC]; antisense) | 1.203 fold change | –
CO-3995 (antisense eG*eT*e[5mC]*eT*eA*eG*eG*eA*eG*e[5mC]*eT*eT*e[5mC]*eT*eG*eT*eT*eT*eA*e[5mC]) | 1.683 fold change | –
CO-4051 (antisense eG*eA*e[5mC]*eT*eT*eT*eT*eG*eA*eG*e[5mC]*eA*eA*eG*eG*e[5mC]*eT*eG*eT*eT) | 0.908 fold change | –

— patent US20250320496A1, “MODULATION OF ABCB11 GENE TRANSCRIPTION USING ANTISENSE OLIGONUCLEOTIDES TARGETING REGULATORY RNAS” (CAMP4 Therapeutics Corporation, priority 2022, published 2025)
